Results as given in US11744269B2, “Vegetable and fruit wash formulation and uses thereof” (priority 2020, dated 2023).

How the values were obtained:
[1] = tested on: Staphylococcus aureus ATCC 6538; experiment: Zone of Inhibition Assay for Staphylococcus aureus ATCC 6538; type: cell-based
Protocol: (§1) The anti-microbial efficacy of VFW composition is evaluated by finding its zone of inhibition against Staphylococcus Aureus, Escherichia coli, Candida Albicans and Aspergillus Niger and compared with zone of inhibition of standard antibiotics known to be very potent in eliminating the subject microorganism.
(§2) The anti-microbial efficacy of VFW composition is evaluated by finding its zone of inhibition against Staphylococcus Aureus, Escherichia coli, Candida albicans and Aspergillus niger and compared with zone of inhibition of standard antibiotics known to be very potent in eliminating the subject microorganism.
Staphylococcus aureus is a gram-positive, round-shaped bacterium found as dominant genera on the surfaces of vegetables and fruits. The assay was performed for the culture of Staphylococcus aureus ATCC 6538. Ciplox is known to be very effective in eliminating this strain. It was used as standard antibiotic.

[2] = tested on: crown rot disease in Banana; experiment: Crown rotting evaluation of bananas washed in industrial set-up (banana plantation); conditions: bananas soaked 30 minutes maximum in 2% VFW solution in water or NaClO solution in water
Protocol: As crown rot progresses, fruits like banana begins to soften and blacken and induces early ripening of fruits.
The crown-rot and fruit blackening studies are conducted to determine the efficacy of the Vegetable and Fruit Wash to protect the fruits from the so-called disease and also from premature ripening. This study is also conducted to determine the efficacy of the present invention in prolonging the life of the fruits, i.e. in increasing the shelf life of the fruits.
A batch of bananas is washed using 2% of Vegetable and Fruit Wash solution in water. The bananas are soaked in the solution for 30 minutes maximum, rinsed, dried and packed and are observed after 2 weeks of washing and after 4 weeks of washing post-delivery and ripening. Another batch of bananas are washed using Sodium Hypochlorite (NaClO) solution in water as per the industry standard washing procedure. The bananas are soaked in the solution for 30 minutes maximum, rinsed, dried and packed. They are observed after 2 weeks of washing and after 4 weeks of washing post delivery and ripening.

Escherichia coli 8739 = experiment: Zone of Inhibition Assay for Escherichia coli 8739; type: cell-based
Protocol: as §1, §2
20-30% of food-poisoning outbreaks linked to disease causing strains of the bacterium Escherichia coli are caused by people eating contaminated vegetables. The assay was performed for the culture of Escherichia coli 8739. Gentamicin is known to be very effective in eliminating this strain and is used as standard antibiotic.

Candida albicans 10231 = experiment: Zone of Inhibition Assay for Candida albicans 10231; type: cell-based
Protocol: Candida albicans is opportunistic pathogenic yeast found to have growth on fruits rich in sugar content like bananas, dates, grapes, mango, and dried fruit. The zone of inhibition assay is performed for the culture of Candida albicans 10231.

In the case of `O=C(O)c1cn(C2CC2)c2cc(N3CCNCC3)c(F)cc2c1=O` [Ciplox], the “Zone of Inhibition (mm)” value [1] is reported as 27.64 mm.
In the case of `OCl` [NaClO, Sodium Hypochlorite], the “Number of Rotten Crowns 2 weeks after Washing” value [2] is reported as 1, the “Number of Rotten Crowns 4 weeks after Washing” value [2] is reported as 3 and the “Number of Rotten Crowns after Ripening” value [2] is reported as 5.
In the case of Gentamicin, the “Zone of Inhibition (mm)” value (Escherichia coli 8739) is reported as 24.54 mm.
Zinc pyrithione [ZPTO] was tested, and the “Zone of Inhibition (mm)” value (Candida albicans 10231) was 24.37 mm.
